The test system of one data set is mouse erythrocytes. The settings on record: 256 μg/ml; cited from earlier work.
For data set [1], the system named is E. coli CICC21530 (serotype O157:H7). The class given is cell-based, Escherichia coli. The settings on record: microtiter broth dilution, 10^5 CFU/ml, 16‒18 h at 37 °C; representative of three independent experiments. As for the experimental part: (§1) The MIC values of LfcinB17-33 derivatives against bacteria were determined by the microtiter broth dilution method. Briefly, 10 μl of serially diluted aliquots of peptides were added to each well of 96-well microtiter plates, followed by the addition of 90 μl exponential phase bacteria (10^5 CFU/ml) and incubated for 16‒18 h at 37 °C.
Background: In broth dilution the organism is exposed to a series of concentrations in liquid medium.

For a further data set, the system named is E. coli CVCC1515. The class given is cell-based, Escherichia coli. The settings on record: CVCC1515, 18 h. As for the experimental part: as §1
The next data set deals with S. enteritidis CVCC3377. Type of data set: cell-based, Salmonella enteritidis. The settings on record: CVCC3377, 18 h. The protocol:
as §1

For data set [2], the system named is Bacillus subtilis ATCC6633. The class given is cell-based. The settings on record: ATCC6633, 18 h. As for the experimental part: as §1
Data set [3] relates to Enterococcus faecium CMCC1.2136. Type of data set: cell-based. Particulars: CMCC1.2136, 18 h. As for the experimental part: as §1
Another data set relates to Escherichia coli CVCC195. The class given is cell-based. The settings on record: CVCC195, 18 h. As for the experimental part: as §1
Data set [4] relates to Pseudomonas aeruginosa CICC10419. The class given is cell-based. Particulars: CICC10419, 18 h. As for the experimental part: as §1
A further data set has as its system S. choleraesuis CVCC503. The class given is cell-based. Particulars: CVCC503, 18 h. The protocol: as §1
In another data set the test system is S. pullorum CVCC1789. Type of data set: cell-based. Particulars: CVCC1789, 18 h. The protocol:
as §1

For a further data set, the system named is S. pullorum CVCC1802. The class given is cell-based. Particulars: CVCC1802, 18 h. The protocol:
as §1

Data set [5] deals with Salmonella typhimurium ATCC14028. Type of data set: cell-based. Particulars: ATCC14028, 18 h. The protocol: as §1
The subject of data set [6] is Staphylococcus aureus ATCC43300. Type of data set: cell-based. Particulars: ATCC43300, 18 h. The protocol: as §1
Data set [7] relates to Streptococcus suis CVCC606. Type of data set: cell-based. The settings on record: 18 h. As for the experimental part:
as §1

The next data set relates to P. aeruginosa CICC21630. The class given is cell-based, Pseudomonas aeruginosa. The settings on record: CICC21630, 18 h. As for the experimental part:
as §1

Data set [8] concerns S. aureus ATCC25923. Type of data set: cell-based, Staphylococcus aureus. The settings on record: ATCC25923, 18 h. As for the experimental part: as §1
Data set [9] deals with S. aureus ATCC25923. The class given is in vivo. The protocol: The thigh infection protocol was performed as previously described. Female BALB/c mice (6 weeks old, 22 ± 2 g) were rendered neutropenic (neutrophils, 100/mm^3) by intraperitoneal injection with 150 and 100 mg cyclophosphamide per kg of body weight for 4 d and 1 d before infection, respectively. Mice were inoculated with 100 μl of S. aureus ATCC25923 cells (1.0 × 10^7 CFU/ml) and given a single dose (0.2 ml) of Lfcin4 or Lfcin5 (10 or 15 mg/kg of body weight) or vancomycin (10 mg/kg of body weight) by tail vein injection at 2 h post-infection. Mice were humanely euthanized by cervical dislocation at 5 and 10 h after treatment. Thighs were removed and homogenized in sterile PBS for a CFU assay for S. aureus ATCC25923.

Another data set has as its system LPS from E. coli O111:B4. Put plainly: LPS-induced endotoxemia model, survival. Type of data set: in vivo, mouse (C57BL/6). Particulars: 15 mg/kg i.p. at 0.5, 8 and 24 h after LPS 30 mg/kg i.p.; followed 7 d; groups of eight mice. The protocol:
Male C57BL/6 mice (8 weeks old, 22 ± 2 g) were intraperitoneally injected with 30 mg/kg of LPS (0.2 ml) from E. coli O111:B4 cells as previously described. Mice were intraperitoneally injected with Lfcin4 or Lfcin5 (10, 15 or 20 mg/kg of body weight in 0.2 ml) or colistin (15 mg/kg of body weight in 0.2 ml) at 0.5, 8 and 24 h after inoculation with LPS, respectively. Mice injected with LPS or saline only served as positive or mock-treated controls, respectively. Survival was recorded every 12 h and followed for up to 7 d.

Converted amounts (≈) assume the structure as drawn. Where two headings read alike, the source gives them in different places. Ends that are not written are not given here. A value given as a limit tells only on which side of the number the result lay.

With `CSCC[C@H](NC(=O)[C@H](CCCNC(=N)N)NC(=O)[C@H](Cc1c[nH]c2ccccc12)NC(=O)[C@H](CCC(N)=O)NC(=O)[C@H](Cc1c[nH]c2ccccc12)NC(=O)[C@H](CCCNC(=N)N)NC(=O)[C@H](CCCNC(=N)N)NC(=O)[C@H](CS)NC(=O)[C@H](CCCCN)NC(=O)[C@@H](N)Cc1ccccc1)C(=O)N[C@@H](CCCCN)C(=O)N[C@@H](CCCCN)C(=O)N[C@@H](CC(C)C)C(=O)NCC(=O)N[C@@H](C)C(=O)O` [Lfcin1], the hemolysis result in the data set on mouse erythrocytes was “approximately 7.5%”.

For the compound `CSCC[C@H](NC(=O)[C@H](CCCNC(=N)N)NC(=O)[C@H](Cc1c[nH]c2ccccc12)NC(=O)[C@H](CCC(N)=O)NC(=O)[C@H](Cc1c[nH]c2ccccc12)NC(=O)[C@H](CCCNC(=N)N)NC(=O)[C@H](CCCNC(=N)N)NC(=O)[C@H](CS)NC(=O)[C@H](CCCCN)NC(=O)[C@@H](N)Cc1ccccc1)C(=O)N[C@@H](CCCCN)C(=O)N[C@@H](CCCCN)C(=O)N[C@@H](CC(C)C)C(=O)NCC(=O)N[C@@H](C)C(=O)N1CCC[C@H]1C(=O)N[C@@H](CO)C(=O)O` [Lfcin2], the MIC (commonly the lowest concentration found to suppress growth) in data set [1] was 59 µM (≈ 129 µg/mL); against E. coli CVCC1515 it was greater than 59 µM; against S. enteritidis CVCC3377 it was 15 µM (≈ 32.7 µg/mL); in [2] it was 29 µM (≈ 63.2 µg/mL); in data set [3], 15 µM (≈ 32.7 µg/mL); with Escherichia coli CVCC195, 15 µM (≈ 32.7 µg/mL). Further, the MIC in [4] was greater than 59 µM; against S. choleraesuis CVCC503, 59 µM (≈ 129 µg/mL); in the data set with S. pullorum CVCC1789, greater than 59 µM; in the data set with S. pullorum CVCC1802, greater than 59 µM; in data set [5] it was 29 µM (≈ 63.2 µg/mL); in data set [6], greater than 59 µM. In addition, the results for the MIC (in [7]; with P. aeruginosa CICC21630; against S. aureus ATCC25923 [8]) were greater than 59 µM, greater than 59 µM and 0.92 µM (≈ 2 µg/mL), respectively.

As for `CN[C@H](CC(C)C)C(=O)N[C@H]1C(=O)N[C@@H](CC(N)=O)C(=O)N[C@H]2C(=O)N[C@H]3C(=O)N[C@H](C(=O)N[C@H](C(=O)O)c4cc(O)cc(O)c4-c4cc3ccc4O)[C@H](O)c3ccc(c(Cl)c3)Oc3cc2cc(c3O[C@@H]2O[C@H](CO)[C@@H](O)[C@H](O)[C@H]2O[C@H]2C[C@](C)(N)[C@H](O)[C@H](C)O2)Oc2ccc(cc2Cl)[C@H]1O` [vancomycin, reference compound], the “decrease of bacterial count in thigh” value with S. aureus ATCC25923 [9] (10 mg/kg single i.v. dose (Fig. 6B), time not restated, sentence follows the 5 h result) came to 0.1 log10 CFU/g. For the same compound, in the data set on S. aureus ATCC25923 [9] (10 h post-treatment, 10 mg/kg single i.v. dose), the “S. aureus cells killed” value is on record as −1.2%.

Turning to FKAFRWAWRMKKLAAPS [Lfcin3], the MIC in [1] was determined as 31 µM; with E. coli CVCC1515, 31 µM; with S. enteritidis CVCC3377 it was 1.9 µM; in [2] it was 15 µM; in [3], 15 µM; against Escherichia coli CVCC195 it was 31 µM. The MIC in [4] is greater than 61 µM; against S. choleraesuis CVCC503 it was 61 µM; against S. pullorum CVCC1789, greater than 61 µM; with S. pullorum CVCC1802 it was greater than 61 µM; in data set [5], 61 µM; in [6], greater than 61 µM. Besides, the MIC in data set [7] was 61 µM; against P. aeruginosa CICC21630, greater than 61 µM; against S. aureus ATCC25923 [8], 0.95 µM.

On to FKAFRWAWRWKKLAAPS [Lfcin5], for which the MIC is 30 µM in [1]; 60 µM against E. coli CVCC1515; 1.9 µM against S. enteritidis CVCC3377; 15 µM in data set [2]; 7.4 µM in [3]; 30 µM against Escherichia coli CVCC195. In addition, the MIC is greater than 60 µM in data set [4]; 60 µM in the data set with S. choleraesuis CVCC503; greater than 60 µM against S. pullorum CVCC1789; greater than 60 µM in the data set on S. pullorum CVCC1802; greater than 30 µM in data set [5]; 30 µM in [6]. Further, the MIC in data set [7] is 60 µM; against P. aeruginosa CICC21630, greater than 60 µM; in the data set with S. aureus ATCC25923 [8], 0.93 µM. Moreover, in the data set on S. aureus ATCC25923 [9] (ATCC25923, mouse, in vivo, iv, 15 mg/kg, 10 h), the “S. aureus cells killed” value is on record as “approximately 76.6%”.

For FKCWRWQWRWKKLGAPS [Lfcin6], the MIC in data set [1] was 57 µM; in the data set with E. coli CVCC1515 it was 57 µM; in the data set on S. enteritidis CVCC3377, 7.1 µM; in [2], 57 µM; in data set [3], 14 µM; against Escherichia coli CVCC195, 57 µM. Besides, the MIC (in [4]; against S. choleraesuis CVCC503; against S. pullorum CVCC1789; with S. pullorum CVCC1802; in data set [5]; in [6]) was greater than 57 µM in each case. Further, the MIC in data set [7] is greater than 57 µM; against P. aeruginosa CICC21630, greater than 57 µM; with S. aureus ATCC25923 [8] it was 7.1 µM.

For the compound colistin [reference compound], the survival rate in the data set on LPS from E. coli O111:B4 is 75%.

(Values after PMC5347165, “Killing of Staphylococcus aureus and Salmonella enteritidis and neutralization of lipopolysaccharide by 17-residue bovine lactoferricins: improved activity of Trp/Ala-containing molecules” (Scientific Reports, 2017).)
